Measurements reported in patent publication US20110224133A1 (University of Southern California, priority 2008, published 2011).
Entries after “also recorded” stand apart in the source; their conditions may differ.

Columns and labels:
NIH3T3 cells [1] = assay: GFP-LC3 autophagy assay in NIH3T3 cells expressing FLIP; type: cell-based, murine; settings: ectopic expression in NIH3T3 cells, Hank's solution 4 hr or 2 μM rapamycin 3 hr
LC3-II = assay: Anti-LC3 immunoblotting of starved NIH3T3 cells expressing FLIP; type: cell-based, murine; settings: starvation, Hank's solution 4 hr
Protocol: The arrows indicate autophagosomes.
During autophagy, an LC3 precursor (LC3-I) undergoes cleavage and lipidation to yield its processed form (LC3-II) (Mizushima et al. (2008) Nature 451:1069-1075). Immunoblotting was performed with an antibody against LC3 to further measure autophagic activity. […] Polypeptides were resolved by SDS-polyacrylamide gel electrophoresis (PAGE) and transferred to a PVDF membrane (Bio-Rad). […] The proteins were visualized by a chemiluminescence reagent (Pierce) and detected by a Fuji Phosphor Imager. […] Finally, the ability of FLIP to block autophagy in multiple cell types was evaluated.

[2] = tested on: HCT116, HaCat, and MEF cells; assay: GFP-LC3 autophagy assay in HCT116, HaCat and MEF cells; type: cell-based; settings: 2 μM rapamycin 3 hr
NF-κB = NF-κB luciferase reporter assay in NIH3T3 cells; type: cell-based, murine; settings: 48 hr post-transfection
Protocol: (§1) In panel A, propidium iodide (PI) staining and flow cytometry analysis were performed to determine apoptosis levels. In panels B-C, NIH3T3 cells containing vector, KSHV vFLIP, or its mutants were transfected with an NF-κB luciferase reporter construct and a control renilla luciferase plasmid, pRL-SV40. At 48 hr post-transfection, luciferase activity was measured with a luminometer using a dual luciferase assay kit and normalized with renilla luciferase activity to determine transfection efficiency (B). […] At 48 hr post-transfection, luciferase activity was measured as described above (E).
(§2) Propidium iodide (PI) staining and flow cytometry analysis were performed to determine apoptosis levels (FIG. 3A). Alternatively, NIH3T3 cells containing vector, KSHV vFLIP, or its mutants were transfected with an NF-κB-luciferase reporter construct and a control renilla luciferase plasmid, pRL-SV40 (Promega). At 48 hr post-transfection, luciferase activity was measured with a luminometer using a dual luciferase assay kit (Promega) and normalized with renilla luciferase activity to determine transfection efficiency (FIG. 3B).

NIH3T3 cells [3] = assay: TNF-α/CHX-induced apoptosis, PI staining and flow cytometry; type: cell-based, murine; settings: 12 hr
Protocol: as §1, §2

Atg3 [4] = target: T1, Atg3 (Homo sapiens, UniProt Q9NT62); assay: Co-immunoprecipitation and GST pulldown with Atg3 in HEK293T cells; type: binding; settings: HEK293T cells, 48 hr post-transfection
T1 construct: expressed in transfected cells; host or cells: HEK293T
Source text: (§3) For panel A, at 48 hr post-transfection with Flag-vFLIP and/or GFP-Atg3 (left) or Flag-vFLIP and/or GST-Atg3 (middle), HEK293T cells were used for immunoprecipitation with αFlag, αGFP, or GST pulldown, followed by immunoblotting with the indicated antibodies. For panel A (right), HEK293T cells transfected with FIag-vFLIP were used for immunoprecipitation with mouse IgG or αFlag, followed by immunoblotting with αAtg3. Panel B (top) depicts a schematic diagram of human Atg3. N,N-terminus; FR, flexible region; C, C-terminus. […] Panel C (top) depicts a schematic diagram of KSHV vFLIP. […] For panel F, NIH3T3-Vector and NIH3T3-vFLIP cells were treated with 2 nM rapamycin for 12 hr and used for IP with αAtg3, followed by immunoblotting with αLC3. In panels A-F, whole cell lysates (WCLs) were used for immunoblotting with the indicated antibodies to show expression.
(§4) WCLs were used for immunoblotting with αFlag or αGST. […] WCLs were used for immunoblotting with αFlag or αGST.
(§5) The ability of FLIP to bind to Atg3 was evaluated by co-immunoprecipitation assay. HEK293T cells were transfected with Flag-vFLIP and/or GFP-Atg3 or Flag-vFLIP and/or GST-Atg3, and at 48 hr post-transfection, cells were harvested and lysed in an NP40 buffer supplemented with complete protease inhibitor cocktail (Roche). After pre-clearing with protein A/G agarose beads for 1 hr at 4° C., whole-cell lysates were used for immunoprecipitation with αFlag, αGFP, or GST. Generally, 1-4 μg of the antibody was added to 1 ml of the cell lysate and incubated at 4° C. for 8 to 12 hr. The immunoprecipitates were then washed extensively with a lysis buffer and eluted by boiling them with an SDS loading buffer for 5 min. Following immunoprecipitation, samples were treated to immunoblot using αAtg3 (1:500) (Novus).
(§6) The overall structure of yeast Atg3 has a unique hammer-like shape with the N-terminal and C-terminal regions discretely responsible for Atg7 and Atg8 (equivalent to mammalian LC3) binding, respectively. (Yamada et al. (2007) J. Biol. Chem. 282:8036-8043). Based on the structure of yeast Atg3, human Atg3 deletion mutants fused with a GST mammalian expression vector were constructed: GST-Atg31-93, GST-Atg3193-268, GST-Atg3268-315, and GST-Atg3193-315.

Atg3 [5] = assay: as above; type: binding, human; settings: GST-Atg3 deletion mutants, GST pulldown
Source text: as §3, §4, §5, §6

Atg3-LC3 interaction [6] = target: T2, Atg3-LC3 interaction (Homo sapiens, UniProt Q9NT62); assay: Competition with LC3 for Atg3 binding; settings: HEK293T cells, GST-Atg3 and GFP-LC3
T2 construct: expressed in transfected cells; host or cells: HEK293T
Source text: as §3
(§7) Due to identical Atg3 binding patterns seen in vFLIP and LC3, the ability of vFLIP to directly compete with LC3 for Atg3 binding was tested. HEK293T cells were transfected with GST-Atg3 and GFP-LC3 along with increasing amount of Flag-vFLIP. At 48 hr post-transfection, GST pulldown was performed as described above, followed by immunoblotting with αGFP or αFlag.

Atg3-LC3 interaction [7] = assay: Competition with LC3 for Atg3 binding; settings: NIH3T3 cells, normal conditions; weakly recovered with 2 nM rapamycin 12 hr
Source text: as §3, §7

BCBL1 cells = assay: Protection of TREX-BCBL cells from rapamycin- or zVAD-induced growth suppression and autophagic death; type: cell-based, human; settings: ectopic expression in BCBL1 cells; 50 nM rapamycin or 50 μM zVAD, 6 days
Protocol: The effect of vFLIP on autophagy was tested in a KSHV-infected BCBL1 cell line.

TREX-BCBL cells = assay: Autophagy and cell death in TREX-BCBL-vFLIP cells; settings: for suppression of rapamycin-induced autophagy (and cell death) in TREX-BCBL cells: doxycycline-induced vFLIP, 2 μM rapamycin 12 hr
Protocol: Subsequently, autophagy was quantified as means (±SD) of the combined results from three independent experiments. 2 μM rapamycin treatment was included as a control. For panels B (right), TREX-BCBL-Vector and TREX-BCBL-vFLIP cells were treated with Doxycycline for 24 hr, followed by incubation with 0, 30, or 50 μM of TAT only, the K-α2, or the K-α4 peptide (top), or TAT only, the C-α2, or the C-α4 peptide (bottom) for an additional 12 hr and a BC Z2 CS analyzer used to determine cell death (as a percentage). […] For panel E, TREX-BCBL-Vector and TREX-BCBL-vFLIP cells were treated with the K-α and the K-α4 (30 μM each) peptide for 12 hr, followed by immunoblotting with αLC3 and αactin. […] For panel G, various human lymphoma cells were treated with 0, 30, or 50 μM of the K-α2 peptide (left) or the K-α4 peptide (right) for 12 hr and cell death (as a percentage) was determined using a BC Z2 CS Analyzer. For panel H, KSHV-infected BCBL1 cells were incubated with various combinations of rapamycin (25 nM), the K-α2 peptide (20 μM), and the K-α4 peptide (20 μM). A BC Z2 CS Analyzer was used to determine cell numbers (left) and cell death at 6 days (right).

T1 sequence (Q9NT62 whole entry): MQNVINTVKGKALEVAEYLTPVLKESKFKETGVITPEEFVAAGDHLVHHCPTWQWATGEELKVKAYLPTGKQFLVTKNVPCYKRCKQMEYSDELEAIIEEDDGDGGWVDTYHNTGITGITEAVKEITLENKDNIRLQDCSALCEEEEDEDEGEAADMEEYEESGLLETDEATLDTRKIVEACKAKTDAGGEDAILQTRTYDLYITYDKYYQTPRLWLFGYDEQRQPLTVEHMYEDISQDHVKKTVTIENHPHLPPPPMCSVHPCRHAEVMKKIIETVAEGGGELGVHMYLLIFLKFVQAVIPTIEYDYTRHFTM
T2 sequence (Q9NT62 whole entry): as above

KSHV vFLIP: viral FLIP of Kaposi's sarcoma-associated herpes virus, full-length protein
suppression of starvation- and rapamycin-induced autophagy (GFP-LC3 puncta) (NIH3T3 cells [1]): strongly suppressed starvation- and rapamycin-induced autophagy; also recorded: anti-autophagy
suppression of starvation- and rapamycin-induced autophagy (GFP-LC3 puncta) (NIH3T3 cells [1]; listed as vFLIP): effectively suppressed starvation- and rapamycin-induced autophagy
processed LC3-II (LC3-II): little or no processed LC3-II
blocking of autophagy in several cell types [2]: efficiently blocked autophagy in a number of cell types
NF-κB activation (NF-κB): carried out NF-κB activation
blocking of TNFα-induced apoptosis (NIH3T3 cells [3]): anti-apoptosis
Atg3 binding (Atg3 [4]): strongly interacted with endogenously and exogenously expressed Atg3
Atg3 regions bound (Atg3 deletion mutants) (Atg3 [5]): independently bound either the aa193-268 or aa268-315 region of the C-terminal of Atg3
Atg3-LC3 interaction with increasing vFLIP expression (Atg3-LC3 interaction [6]): marked decrease of Atg3-LC3 interaction
endogenous Atg3 and LC3 interaction (Atg3-LC3 interaction [7]): dramatic reduction of endogenous Atg3 and LC3 interaction
protection from rapamycin- or zVAD-induced growth suppression and autophagic death (BCBL1 cells): almost completely blocked rapamycin- or zVAD-induced growth suppression and autophagic death
inhibition of peptide-induced autophagy and cell death (TREX-BCBL cells; TREX-BCBL-vFLIP cells treated with FLIP peptides): minimal
suppression of rapamycin-induced autophagy (and cell death) in TREX-BCBL cells (TREX-BCBL cells): readily blocked rapamycin-induced autophagy and cell death
suppression of rapamycin-induced autophagy (and cell death) in TREX-BCBL cells (TREX-BCBL cells; listed as vFLIP): extensively suppressed rapamycin-induced autophagy
